From paper PMC7311426, “An amphipathic peptide with antibiotic activity against multidrug-resistant Gram-negative bacteria” (Nature Communications, 2020)
Where two headings read alike, the source gives them in different places. Residues, ends and D or L forms follow the SMILES beside them.

How the values were obtained:
[1] = mouse IP
7-day iv MTD toxicity = conditions: minipig
in vivo [2] = conditions: for level at 4 h / level at 8 h / level at 0.5 h / level at 1 h / level at 3 h / level at 12 h: Cross species PK, concentration (Fig 6 source data)
Protocol: The studies were performed at Fidelta Ltd, Croatia (mice), under review by the institutional ethics committee (CARE-Zg), and Covance Laboratories UK and Muenster Germany (cynomolgus monkey and minipig) in accordance with the requirements of the Animals (Scientific Procedures) Act 1989 and a maintained local ethical review. All studies were contracted by Adenium Biotech ApS. Mice were housed in polysulfone cages with an acclimatization period of 7 days prior to experiments with air temperature maintained at 22 °C with 55% humidity and light–dark cycles of 12 h light. Cynomolgus monkeys of age range 4–7 years were selected, tested for health, acclimatized for 2 weeks, and housed in single-animal climate controlled stainless-steel cages with a minimum of 8 air changes per hour with air temperature at 19–25 °C and relative humidity 40–70%, and light–dark cycles of 12 h light. Minipigs of age range 4–6 months were selected, tested for health, acclimatized for 2 weeks, and housed in single-animal pens with 15–20 air changes per hour with air temperature at 22–26 °C with light–dark cycles of 12 h light.
Mouse, monkey, and minipig i.v. 2-h infusion: AA139 formulated in Ringer’s acetate was administered intravenously to CD1 mice, cynomolgus monkeys (Macaca fascicularis) and Göttingen A/S minipigs (Ellegaard Göttingen, Denmark) by continuous infusion over 2 h (minipig under anesthesia). Individual dose volumes were based on individual body weight. Blood samples were collected at 0.5, 1, 2, 3, 4, 8, 10, and 12 h after the start of the infusion (n = 6 mice, male and female combined; n = 2 monkeys, one male and one female; n = 2 minipigs, one male and one female). Bioanalytical analysis was performed by SPE followed by LC–MS/MS. The method was validated for an AA139 concentration range of 43.4–21,700 ng mL^−1. Pharmacokinetic parameters were calculated by standard non-compartmental analysis (NCA) using Phoenix WinNonlin version 6.2. The studies were conducted in compliance with Good Laboratory Practice (GLP) regulations.

in vivo [3] = conditions: both, mouse, plasma, inhaled or intranasal; for AUC(0-t) / Cmax: Plasma, mice
in vivo [4] = conditions: mouse, ip, Cross species PK, concentration (Fig 6 source data)
[5] = Göttingen, minipig, in vivo, iv, minipig 2h i.v. infusion, replicate 1
[6] = Göttingen, minipig, in vivo, iv, minipig 2h i.v. infusion, replicate 2
[7] = both, Göttingen, minipig, in vivo, iv, 10 mg kg-1
[8] = both, cynomolgus monkey, in vivo, iv, 10 mg kg-1
[9] = cynomolgus monkey, in vivo, iv, monkey 2h i.v. infusion, replicate 1
[10] = cynomolgus monkey, in vivo, iv, monkey 2h i.v. infusion, replicate 2
[11] = cynomolgus monkey, in vivo, iv, monkey 2h i.v. infusion, replicate 3
[12] = cynomolgus monkey, in vivo, iv, monkey 2h i.v. infusion, replicate 4
[13] = 5 mg kg-1/day, Day 1, 5 mg kg-1/day, 2 hour daily inhalation
[14] = 5 mg kg-1/day, Day 7, 5 mg kg-1/day, inhalation
[15] = 40 mg kg-1/day, Day 1, 40 mg kg-1/day, inhalation

CC(C)[C@@H]1NC(=O)[C@H](Cc2ccc(O)cc2)NC(=O)[C@H](Cc2c[nH]c3ccccc23)NC(=O)[C@@H](NC(=O)[C@H](Cc2ccccc2)NC(=O)CN)CSSC[C@@H](C(=O)N[C@@H](CC(N)=O)C(=O)O)NC(=O)[C@H](CCCNC(=N)N)NC(=O)[C@H](CCCNC(=N)N)NC(=O)[C@H](Cc2ccc(O)cc2)NC(=O)[C@@H]2CSSC[C@H](NC1=O)C(=O)N[C@@H](C)C(=O)N[C@@H](CCCNC(=N)N)C(=O)N[C@@H](CCCNC(=N)N)C(=O)N[C@@H](CC(N)=O)C(=O)NCC(=O)N[C@@H](C)C(=O)N[C@@H](CCCNC(=N)N)C(=O)N[C@@H](C(C)C)C(=O)N2 [AA139] (HELM PEPTIDE1{G.F.C.W.Y.V.C.A.R.R.N.G.A.R.V.C.Y.R.R.C.N}$PEPTIDE1,PEPTIDE1,3:R3-20:R3|PEPTIDE1,PEPTIDE1,7:R3-16:R3$$$V2.0)
Cross species PK, concentration (Fig 6 source data) ([1]; time 0.08 h, replicate 1): 6190
Cross species PK, concentration (Fig 6 source data) ([1]; time 0.08 h, replicate 3): 3520
Cross species PK, concentration (Fig 6 source data) ([1]; time 0.5 h, replicate 1): 5370
Cross species PK, concentration (Fig 6 source data) ([1]; time 0.5 h, replicate 2): 4790
Cross species PK, concentration (Fig 6 source data) ([1]; time 0.5 h, replicate 3): 6580
MTD at 168 h (7-day iv MTD toxicity; in vivo, iv): 10 mg/kg
AUC(0-inf) (7-day iv MTD toxicity; in vivo, iv, 10 mg/kg): 36700 ng·h/mL
Cmax (7-day iv MTD toxicity; in vivo, iv, 10 mg/kg): 8700 ng/mL
Target organ toxicity, kidney (7-day iv MTD toxicity; 20, 25, or 30 mg kg^−1 per day by 2 h i.v. infusion for 7 days, dose-related severity): tubular nephropathy present
level at 4 h (in vivo [2]; [5]): 2850 ng/mL
level at 4 h (in vivo [2]; [6]): 3110 ng/mL
level at 8 h (in vivo [2]; [5]): 1510 ng/mL
level at 8 h (in vivo [2]; [6]): 1240 ng/mL
Vd (in vivo [2]; [7]): 1.2 L/kg
half-life (in vivo [2]; [7]): 186 min
level at 0.5 h (in vivo [2]; both, Göttingen, minipig, in vivo, iv, minipig 2h i.v. infusion, time 0.5 h, replicate 1): 4830 ng/mL
level at 1 h (in vivo [2]; both, Göttingen, minipig, in vivo, iv, minipig 2h i.v. infusion, time 1 h, replicate 2): 6780 ng/mL
level at 3 h (in vivo [2]; both, Göttingen, minipig, in vivo, iv, minipig 2h i.v. infusion, replicate 1): 4100 ng/mL
level at 3 h (in vivo [2]; both, Göttingen, minipig, in vivo, iv, minipig 2h i.v. infusion, replicate 2): 5080 ng/mL
AUC(0-inf) (in vivo [2]; [8]): 40800 ng·h/mL
Vd (in vivo [2]; [8]): 0.87 L/kg
half-life (in vivo [2]; [8]): 144 min
level at 0.5 h (in vivo [2]; both, cynomolgus monkey, in vivo, iv, monkey 2h i.v. infusion, time 0.5 h, replicate 2): 6540 ng/mL
level at 0.5 h (in vivo [2]; both, cynomolgus monkey, in vivo, iv, monkey 2h i.v. infusion, time 0.5 h, replicate 3): 7630 ng/mL
level at 0.5 h (in vivo [2]; both, cynomolgus monkey, in vivo, iv, monkey 2h i.v. infusion, time 0.5 h, replicate 4): 13500 ng/mL
level at 1 h (in vivo [2]; both, cynomolgus monkey, in vivo, iv, monkey 2h i.v. infusion, time 1 h, replicate 1): 9000 ng/mL
level at 1 h (in vivo [2]; both, cynomolgus monkey, in vivo, iv, monkey 2h i.v. infusion, time 1 h, replicate 2): 9340 ng/mL
level at 1 h (in vivo [2]; both, cynomolgus monkey, in vivo, iv, monkey 2h i.v. infusion, time 1 h, replicate 3): 8480 ng/mL
level at 3 h (in vivo [2]; both, cynomolgus monkey, in vivo, iv, monkey 2h i.v. infusion, replicate 1): 5390 ng/mL
level at 3 h (in vivo [2]; both, cynomolgus monkey, in vivo, iv, monkey 2h i.v. infusion, replicate 2): 5440 ng/mL
level at 3 h (in vivo [2]; both, cynomolgus monkey, in vivo, iv, monkey 2h i.v. infusion, replicate 3): 4440 ng/mL
level at 3 h (in vivo [2]; both, cynomolgus monkey, in vivo, iv, monkey 2h i.v. infusion, replicate 4): 6120 ng/mL
level at 4 h (in vivo [2]; [9]): 3590 ng/mL
level at 4 h (in vivo [2]; [10]): 3930 ng/mL
level at 4 h (in vivo [2]; [11]): 2240 ng/mL
level at 4 h (in vivo [2]; [12]): 2830 ng/mL
level at 8 h (in vivo [2]; [9]): 1270 ng/mL
level at 8 h (in vivo [2]; [10]): 1290 ng/mL
level at 8 h (in vivo [2]; [11]): 2720 ng/mL
level at 8 h (in vivo [2]; [12]): 2460 ng/mL
level at 12 h (in vivo [2]; [11]): 860 ng/mL
level at 12 h (in vivo [2]; [12]): 802 ng/mL
Cross species PK, concentration (Fig 6 source data) (in vivo [2]; minipig 2h i.v. infusion, time 0.5 h, replicate 2): 6298
Cross species PK, concentration (Fig 6 source data) (in vivo [2]; minipig 2h i.v. infusion, time 1 h, replicate 1): 4846
Cross species PK, concentration (Fig 6 source data) (in vivo [2]; minipig 2h i.v. infusion, time 2 h, replicate 1): 7751
Cross species PK, concentration (Fig 6 source data) (in vivo [2]; minipig 2h i.v. infusion, time 2 h, replicate 2): 9612
Cross species PK, concentration (Fig 6 source data) (in vivo [2]; monkey 2h i.v. infusion, time 0.5 h, replicate 1): 6780
Cross species PK, concentration (Fig 6 source data) (in vivo [2]; monkey 2h i.v. infusion, time 1 h, replicate 4): 15900
Cross species PK, concentration (Fig 6 source data) (in vivo [2]; monkey 2h i.v. infusion, time 2 h, replicate 1): 8610
Cross species PK, concentration (Fig 6 source data) (in vivo [2]; monkey 2h i.v. infusion, time 2 h, replicate 2): 11100
Cross species PK, concentration (Fig 6 source data) (in vivo [2]; monkey 2h i.v. infusion, time 2 h, replicate 3): 21300
Cross species PK, concentration (Fig 6 source data) (in vivo [2]; monkey 2h i.v. infusion, time 2 h, replicate 4): 6780
Tmax (in vivo [3]; 5 mg kg-1/day): 18 min
AUC(0-t) (in vivo [3]; [13]): 262 ng·h/mL
AUC(0-t) (in vivo [3]; [14]): 85 ng·h/mL
Cmax (in vivo [3]; [13]): 122 ng/mL
Cmax (in vivo [3]; [14]): 64 ng/mL
Tmax (in vivo [3]; 20 mg kg-1/day): 18 min
Cmax (in vivo [3]; 20 mg kg-1/day, Day 1, 20 mg kg-1/day, inhalation): 952 ng/mL
Cmax (in vivo [3]; 20 mg kg-1/day, Day 7, 20 mg kg-1/day, inhalation): 467 ng/mL
Tmax (in vivo [3]; 40 mg kg-1/day): 18 min
AUC(0-t) (in vivo [3]; [15]): 4540 ng·h/mL
Cmax (in vivo [3]; [15]): 2460 ng/mL
level at 1 h (in vivo [4]; replicate 1): 5200 ng/mL
level at 1 h (in vivo [4]; replicate 2): 5250 ng/mL
level at 1 h (in vivo [4]; replicate 3): 5230 ng/mL
level at 2 h (in vivo [4]; replicate 1): 4240 ng/mL
level at 2 h (in vivo [4]; replicate 2): 4550 ng/mL
level at 2 h (in vivo [4]; replicate 3): 4140 ng/mL
level at 4 h (in vivo [4]; replicate 1): 1820 ng/mL
level at 4 h (in vivo [4]; replicate 2): 1560 ng/mL
level at 4 h (in vivo [4]; replicate 3): 1370 ng/mL
level at 8 h (in vivo [4]; replicate 1): 570 ng/mL
level at 8 h (in vivo [4]; replicate 2): 472 ng/mL
level at 8 h (in vivo [4]; replicate 3): 682 ng/mL
